Measurements from US20090054720A1, “Use of histone deacetylase inhibitors in combination with radiation for the treatment of cancer” (priority 2002, published 2009).

What was measured:
LNCaP spheroids [1] = assay: LNCaP spheroid growth (volume monitoring); assay type: cell-based, human; details: for growth delay: 5-day incubation, vs untreated
Experimental: Cell concentrations were determined by counting trypsinized cells with a hemocytometer. […] The entire content of the above references is hereby incorporated by reference.
The medium was inoculated at 6.7×10^4 cells/mL from trypsinized stock cultures. The resulting suspension was used to seed 100 mm plates with approximately 10^6 cells. After an incubation of 5-7 days, spheroids of ˜200 μm diameter were selected under an inverted phase-contrast microscope (Axiophot 2; Carl Zeiss Ltd., Gottingen, Germany) fitted with an ocular scale using an Eppendorf pipette.
TREATMENT PROTOCOLS: After each treatment, spheroids were washed three times by suspension in fresh medium. […] A minimum of 12 spheroids was used for each condition in duplicate experiments.
The antibody was obtained from the laboratory of David Scheinberg, M. D., Ph.D., Memorial Sloan-Kettering Cancer Center.
Following complete treatment, washed spheroids were placed in separate agar-prepared wells of a 24 well plate. Untreated spheroids were washed and separated immediately after initial selection. The medium in each well was replaced, and volume measurements preformed, twice per week. Using the inverted microscope and ocular scale described previously, the major and minor diameter, dmax and dmin respectively, were determined and spheroid volume calculated as V=(⅙)·π·dmax·dmin^2. Volume monitoring was stopped once a spheroid had exceeded the field of view of the microscope or had fragmented into individual cells or multiple smaller cell clusters.
We describe this relationship through the inequality:
avg(V|S=5M, R=6 Gy)<C+{avg(V|S=5 μM, R=0)−C}+{avg(V|S=0, R=6 Gy)−C}
To test for synergy, we computed 2000 bootstrap replicates of the average log AUC, for each of the four groups, and computed the proportion of replicates where the inequality was not obtained. This proportion is termed the achieved significance level (p-value).

LNCaP spheroids [2] = assay: Outgrowth assay (colony formation) of spheroids that did not regrow; assay type: cell-based, human; details: 5 μM SAHA 96 h in combination with 6 Gy external beam radiation
LNCaP spheroids [3] = assay: TUNEL staining of spheroid sections (apoptosis); assay type: cell-based, human; details: for TUNEL staining (apoptosis): SAHA alone
Experimental: At 0, 6, 24, or 48 h post treatment spheroids were washed in cold media, fixed for 4 hr in 4% paraformaldehyde, and placed in paraffin blocks. Serial 5-μm sections of the blocks were cut using a microtome and mounted on poly-L-lysine-coated slides that were fixed in ice cold acetone for 10 min.
A final, 2 min incubation in Hematoxylin was used to counterstain sections. Untreated spheroids were used as controls; positive controls were created using DNase I (Boehringer, Ingelheim, Germany). Images were captured digitally from an inverted phase-contrast microscope using a coupled Pixera Professional Camera and associated software (Pixera Visual Communication Suite, Pixera, Los Gatos, Calif.). Images were scored for positive staining as percentage of reactive cells within the spheroid section.
A two-tailed T test was used to test for significant differences in the percentage of positively stained cells.

[4] = test system: LNCaP monolayer cell culture; details: cited from earlier work
[5] = test system: prostate tumor xenografts; details: nude mice (Butler et al. 2000); cited from earlier work
[6] = continuous exposure at 5 μM SAHA

## Ac225-HuM195: recombinant humanized Anti-CD33 monoclonal antibody which has been radiolabelled with actinium225
LNCaP spheroids [1]; 100 nCi/mL Ac225-HuM195 for 24 hours alone
  spheroid growth: did not cause growth inhibition

## O=C(CCCCCCC(=O)Nc1ccccc1)NO [SAHA, Suberoylanilide hydroxamic acid]
LNCaP spheroids [1]; 1.25 μM SAHA
  growth delay: 4 days
LNCaP spheroids [1]; 1.25 μM SAHA, 120-hour and continuous exposure
  spheroid growth: delayed but not arrested
LNCaP spheroids [1]; 2.5 μM SAHA
  growth delay: 7 days
LNCaP spheroids [1]; 2.5 μM SAHA, over the 120 h incubation period
  spheroid growth: complete growth arrest
LNCaP spheroids [1]; 5 μM SAHA 96 h + 6 Gy vs additive model, p<0.01
  statistical analysis of synergy (log AUC of tumor volume curve, bootstrap): synergistic inhibition of tumor growth
LNCaP spheroids [1]; 5 μM SAHA 96 h in combination with 6 Gy external beam radiation after 48 h
  spheroid growth: complete growth inhibition
LNCaP spheroids [1]; 5 μM SAHA 120 h in combination with 3 Gy external beam radiation
  delay in spheroid growth: 7 days
LNCaP spheroids [1]; 5 μM SAHA
  growth delay: 13 days
LNCaP spheroids [1]; 5 μM SAHA, continuous incubation
  time of incubation until complete spheroid disruption: 13 to 16 days
LNCaP spheroids [1]; 5 μM SAHA, five days following a 120 hour incubation
  median volume reduction: 2.4 fold
LNCaP spheroids [1]; 24 hour exposure to 100 nCi/mL Ac225-HuM195 followed by 96 h incubation with 5 μM SAHA
  spheroid growth: complete growth inhibition
LNCaP spheroids [1]; 96 h exposure to 5 μM SAHA alone (Example 5)
  initial delay of spheroid growth: 10 days
LNCaP spheroids [1]; 96 h exposure to 5 μM SAHA alone, after a period of 30 days (Example 5)
  spheroid growth after the initial delay: spheroid growth to almost the levels of control untreated spheroid volume
LNCaP spheroids [1]; continuous exposure at 2.5 μM SAHA
  spheroid growth: complete growth suppression
LNCaP spheroids [1]; [6]
  day by which the majority of spheroids disaggregated: ≤ 20 days
  spheroid volume: rapid loss in spheroid volume
LNCaP spheroids [2]
  spheroids forming colonies in the outgrowth assay: none of the 12 spheroids forming colonies
LNCaP spheroids [3]; 48 h after the end of SAHA incubation (5 μM, 96 h)
  TUNEL staining (apoptosis): apoptotic cells are found throughout the spheroid
LNCaP spheroids [3]; SAHA (5 μM, 96 h) and 6 Gy radiation
  TUNEL staining pattern compared with SAHA alone: almost identical pattern
LNCaP spheroids [3]; TUNEL staining and spheroid morphology
  mode of cell death following exposure to SAHA: predominantly by apoptosis
LNCaP spheroids [3]; immediately after the end of a 96 h SAHA incubation (5 μM)
  TUNEL staining (apoptosis): majority of cells on the spheroid surface have undergone apoptosis
[4]; 2.5 μM SAHA, over a 4-day period (Butler et al. 2000)
  monolayer cell growth: complete growth suppression with minimal to no cell kill
[4]; 5 μM SAHA (Butler et al. 2000)
  monolayer cell kill: progressive cell kill starting after 48 hours
[5]
  toxicity: minimal to no detectable toxicity
